From ChEMBL document CHEMBL1137870, “Synthesis and evaluation of 2-amino-8-alkoxy quinolines as MCHr1 antagonists. Part 2” (Bioorg Med Chem Lett, 2004)

Legend:
[1] = biological target: T1, Melanin-concentrating hormone receptor 1 (Homo sapiens, UniProt Q99705); assay: Concentration required to inhibit binding of [125I]-MCH radioligand to human Melanin-concentrating hormone receptor 1 in IMR-32 I3.4.2 cell membranes
[2] = biological target: T1, Melanin-concentrating hormone receptor 1; assay: Concentration required to inhibit 50% of melanin-concentrating hormone induced [Ca2+] flux in IMR-32 cells measured by using a fluorometric imaging plate reader; format: functional, cell-based
[3] = Brain/plasma ratio was determined at peroral dose of 10 mg/kg in diet-induced obese (DIO) mice; format: ADME, organism-based; design: dose 10 mg/kg, route oral; settings: mouse, brain and plasma, po
[4] = Half life in brain was determined at the peroral dose of 10 mg/kg in diet-induced obese (DIO) mice; format: ADME, organism-based; design: dose 10 mg/kg, route oral; settings: mouse, po
[5] = Half life in plasma was determined at the peroral dose of 10 mg/kg in diet-induced obese (DIO) mice; format: ADME, organism-based; design: dose 10 mg/kg, route oral; settings: mouse, po
[6] = Area under curve in brain was determined at the peroral dose of 10 mg/kg in diet-induced obese (DIO) mice; format: ADME, organism-based; design: dose 10 mg/kg, route oral; settings: mouse, in vivo, po
[7] = Area under curve in plasma was determined at the peroral dose of 10 mg/kg in diet-induced obese (DIO) mice; format: ADME, organism-based; design: dose 10 mg/kg, route oral; settings: mouse, in vivo, po

T1 sequence (Q99705 whole entry): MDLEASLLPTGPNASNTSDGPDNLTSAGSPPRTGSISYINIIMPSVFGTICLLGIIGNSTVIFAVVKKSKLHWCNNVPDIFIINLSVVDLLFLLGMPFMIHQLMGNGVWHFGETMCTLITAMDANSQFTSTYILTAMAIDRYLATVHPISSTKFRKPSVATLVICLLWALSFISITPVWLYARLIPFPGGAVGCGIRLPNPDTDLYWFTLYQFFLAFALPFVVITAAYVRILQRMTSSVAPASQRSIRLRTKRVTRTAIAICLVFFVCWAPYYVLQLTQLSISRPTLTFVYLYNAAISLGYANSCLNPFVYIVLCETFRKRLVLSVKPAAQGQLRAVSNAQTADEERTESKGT

| SMILES | IC50 [1] [µM] | IC50 [2] [µM] | also measured |
| --- | --- | --- | --- |
| Nc1ccc2cccc(OCCCNC(=O)c3cccc(Cl)c3)c2n1 | 0.0004 | 0.003 |  |
| N#Cc1cccc(C(=O)NCCCOc2cccc3ccc(NCc4ccc(-c5ccc(Cl)cc5)o4)nc23)c1 | 0.002 | 0.04 |  |
| COc1cccc(CNCC(C)Oc2cccc3ccc(N)nc23)c1 (stereo not given) | 0.001 | 0.6 |  |
| CC(CC(C)(C)C)Oc1cccc2ccc(N)nc12 (stereo not given) | 0.05 |  |  |
| Nc1ccc2cccc(OCCCNC(=O)Nc3ccc4c(c3)OCO4)c2n1 | 0.005 | 0.11 |  |
| CC(CNCc1ccccc1)Oc1cccc2ccc(N)nc12 (stereo not given) | 0.1 | 0.34 |  |
| Nc1ccc2cccc(OCCCNC(=O)c3ccc4c(c3)OCO4)c2n1 | 0.007 | 0.07 |  |
| COc1cccc(C(=O)NCCCOc2cccc3ccc(N)nc23)c1 | 0.002 | 0.03 |  |
| Nc1ccc2cccc(OCCCNC(=O)Nc3cccc(Cl)c3)c2n1 | 0.0009 | 0.008 |  |
| CC(CN1CCCCC1)Oc1cccc2ccc(N)nc12 (stereo not given) | 0.04 | 0.29 |  |
| N#Cc1cccc(C(=O)NCCCOc2cccc3ccc(N)nc23)c1 | 0.003 | 0.007 | Kp [3]: 0.03; half-life [4]: 1.6 h; half-life [5]: 1.4 h; AUC [6]: 11 ng·h/mL; AUC [7]: 328 ng·h/mL |
| CC(CNC1CC1)Oc1cccc2ccc(N)nc12 (stereo not given) | 0.05 | 0.58 |  |
| CC(CNC1CCCC1)Oc1cccc2ccc(N)nc12 (stereo not given) | 0.03 | 0.03 |  |
| CC(CN1CCOCC1)Oc1cccc2ccc(N)nc12 (stereo not given) | 0.08 | 0.19 |  |
| CC(CN1CCCC1)Oc1cccc2ccc(N)nc12 (stereo not given) | 0.07 | 0.36 |  |
| CC(C)c1ccc(CNCCCOc2cccc3ccc(N)nc23)cc1 | 0.01 | 0.63 |  |
| CC(CNCc1ccsc1)Oc1cccc2ccc(N)nc12 (stereo not given) | 0.01 | 0.15 |  |
| CC(CNCc1ccc2c(c1)OCO2)Oc1cccc2ccc(N)nc12 (stereo not given) | 0.03 | 0.13 |  |

| SMILES | IC50 [1] [µM] | IC50 [2] [µM] | also measured |
| --- | --- | --- | --- |
| Nc1ccc2cccc(OCCCNc3ccc4c(c3)OC(F)(F)O4)c2n1 | 0.001 | 0.1 |  |
| Nc1ccc2cccc(OCCCNc3ccc4c(c3)OCO4)c2n1 | 0.01 | 0.27 |  |
| CC(C)c1ccc(C(=O)NCCCOc2cccc3ccc(N)nc23)cc1 | 0.06 | 0.14 |  |
| CC(CNCc1ccoc1)Oc1cccc2ccc(N)nc12 (stereo not given) | 0.01 | 0.1 |  |
| O=C(NCCCOc1cccc2ccc(NCc3ccc(-c4ccccc4Cl)o3)nc12)Nc1ccc2c(c1)OCO2 | 0.05 | 3.11 |  |
| Nc1ccc2cccc(OCCNCc3ccc4c(c3)OCO4)c2n1 | 0.52 | 8.96 |  |
| O=C(NCCCOc1cccc2ccc(NCc3ccc(-c4ccccc4Cl)o3)nc12)c1cccc(Cl)c1 | 0.001 | 0.02 |  |
| Nc1ccc2cccc(OCCNCc3ccoc3)c2n1 | 0.66 | > 10 |  |
| N#Cc1cccc(C(=O)NCCCOc2cccc3ccc(NCc4ccc(-c5cccc(Cl)c5)o4)nc23)c1 | 0.005 | 0.01 |  |
| Nc1ccc2cccc(OCCCNCc3ccc(Cl)c(C(F)(F)F)c3)c2n1 | 0.005 | 0.22 | Kp [3]: 0.96; half-life [5]: 8.9 h; AUC [6]: 9520 ng·h/mL; AUC [7]: 9960 ng·h/mL |
| CCCNc1ccc2cccc(OCCCNC(=O)c3cccc(Cl)c3)c2n1 | 0.01 | 1.12 |  |
| CC(CNc1ccc2[nH]ncc2c1)Oc1cccc2ccc(N)nc12 (stereo not given) | 0.53 | 8.18 |  |
| Nc1ccc2cccc(OCCCNC(=O)c3cccc(OC(F)(F)F)c3)c2n1 | 0.006 | 0.02 | Kp [3]: 0.2; half-life [4]: 0.6 h; half-life [5]: 1.2 h; AUC [6]: 68 ng·h/mL; AUC [7]: 424 ng·h/mL |
| CC(CNC1CCCCC1)Oc1cccc2ccc(N)nc12 (stereo not given) | 0.21 | 2.17 |  |
| CC(CNCC1CC1)Oc1cccc2ccc(N)nc12 (stereo not given) | 0.08 | 0.46 |  |
| CC(CNCC1CCCC1)Oc1cccc2ccc(N)nc12 (stereo not given) | 0.1 | 0.1 |  |
| CN(C)CC1CCc2cc(NC(=O)c3ccc(-c4ccc(F)cc4)cc3)ccc2C1 (single isomer, unassigned; (-)) | 0.085 | 0.872 |  |
| COCC1=C(C(=O)OC)[C@H](c2ccc(F)c(F)c2)N(C(=O)NCCCN2CCC(c3cccc(NC(C)=O)c3)CC2)C(=O)N1 [SNAP-7941] | 0.003 | 0.015 |  |
